“And” between values parts separate entries of the source, which are not always exact repeats. Identical values can stand only once. Inconclusive results and toxic doses are left out. How the source made its calls: active means survival T/C of 150% or more; inactive means T/C below 125% in these data.
Test system: P388 leukemia ip, CD2F1 mice, survival T/C
Assay: NCI In Vivo Anticancer Drug Screen. Data for tumor model P388 Leukemia (intraperitoneal) in CD2F1 (CDF1) mice
Details: endpoint: median survival time, higher = longer survival
Method in brief: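 Mice carrying the transplanted tumor received test compound or vehicle. Survival was recorded in each group, and the value is the treated-group measurement divided by that of the vehicle-treated control group.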

[1] = dose: 50.0 mg/kg/injection, schedule: Q01DX009 (ip), vehicle: saline with Tween-80
[2] = dose: 100.0 mg/kg/injection, schedule: Q01DX009 (ip), vehicle: saline with Tween-80
[3] = dose: 200.0 mg/kg/injection, schedule: Q01DX009 (ip), vehicle: saline with Tween-80
[4] = dose: 50.0 mg/kg/injection, schedule: Q01DX005 (ip), vehicle: saline with Tween-80
[5] = dose: 100.0 mg/kg/injection, schedule: Q01DX005 (ip), vehicle: saline with Tween-80
[6] = dose: 200.0 mg/kg/injection, schedule: Q01DX005 (ip), vehicle: saline with Tween-80
[7] = dose: 12.5 mg/kg/injection, schedule: Q01DX005 (ip), vehicle: saline with Tween-80
[8] = dose: 25.0 mg/kg/injection, schedule: Q01DX005 (ip), vehicle: saline with Tween-80
[9] = dose: 25.0 mg/kg/injection, schedule: Q01DX009 (ip), vehicle: saline

Measured: T/C

O=C(O)c1cc(N=Nc2ccc(-c3ccc(N=Nc4c(S(=O)(=O)O)cc5cc(Nc6ccccc6)ccc5c4O)cc3)cc2)ccc1O
inactive: dose: 50.0 mg/kg/injection, schedule: Q01DX005 (ip), vehicle: saline 107 % of control | dose: 100.0 mg/kg/injection, schedule: Q01DX005 (ip), vehicle: saline 114 % of control | dose: 200.0 mg/kg/injection, schedule: Q01DX005 (ip), vehicle: saline 112 % of control

CCCCCCCC(=O)[O][Hg][CH2]C1COC([CH2][Hg][O]C(=O)CCCCCCC)CO1 (stereo unspecified)
inactive: dose: 12.5 mg/kg/injection, schedule: Q04DX003 (ip), vehicle: saline with Tween-80 95 % of control | dose: 16.5 mg/kg/injection, schedule: Q01DX009 (ip), vehicle: saline sonified 120 % of control | dose: 16.5 mg/kg/injection, schedule: Q04DX003 (ip), vehicle: saline 90 % of control | dose: 25.0 mg/kg/injection, schedule: Q04DX003 (ip), vehicle: saline with Tween-80 109 % of control | dose: 25.0 mg/kg/injection, schedule: Q04DX003 (ip), vehicle: saline 90 % of control | dose: 37.5 mg/kg/injection, schedule: Q01DX009 (ip), vehicle: saline sonified 120 % of control | dose: 37.5 mg/kg/injection, schedule: Q04DX003 (ip), vehicle: saline 90 % of control | dose: 50.0 mg/kg/injection, schedule: Q04DX003 (ip), vehicle: saline with Tween-80 118 % of control

CCC1(c2ccccc2)SC(=O)NC1=O (stereo unspecified)
inactive: [1] 91 % of control | [2] 91 % of control | [3] 98 % of control

CC(=NCCCCCCN=C(C)c1cc(O)ccc1O)c1cc(O)ccc1O
inactive: dose: 50.0 mg/kg/injection, schedule: Q01DX005 (ip), vehicle: Klucel (hydroxypropylcellulose) (HPC) 92 % of control | dose: 100.0 mg/kg/injection, schedule: Q01DX005 (ip), vehicle: Klucel (hydroxypropylcellulose) (HPC) 94 % of control | dose: 200.0 mg/kg/injection, schedule: Q01DX005 (ip), vehicle: Klucel (hydroxypropylcellulose) (HPC) 87 % of control

CCOC(=O)C1C(=O)NN(/C=C2\C=CC=CC2=O)C1c1ccc([N+](=O)[O-])cc1 (stereo unspecified)
inactive: dose: 100.0 mg/kg/injection, schedule: Q04DX002 (ip), vehicle: saline 111 % of control | dose: 200.0 mg/kg/injection, schedule: Q04DX002 (ip), vehicle: saline 93 % of control | dose: 400.0 mg/kg/injection, schedule: Q04DX002 (ip), vehicle: saline 98 % of control

Cc1nc2c([N+](=O)[O-])c(N3CCOCC3)c([N+](=O)[O-])cc2[nH]1
inactive: dose: 100.0 mg/kg/injection, schedule: Q04DX003 (ip), vehicle: saline with Tween-80 98 % of control | dose: 200.0 mg/kg/injection, schedule: Q04DX003 (ip), vehicle: saline with Tween-80 103 % of control | dose: 400.0 mg/kg/injection, schedule: Q04DX003 (ip), vehicle: saline with Tween-80 101 % of control

C=C1C(O)C2(O)OCC34C(CC5C(C)=CC(=O)C(O)C5(C)C23)OC(=O)C(OC(=O)C(C)(O)CC)C14 (stereo unspecified)
inactive: dose: 0.25 mg/kg/injection, schedule: Q01DX009 (ip), vehicle: saline + alcohol 106 % of control and 112 % of control | dose: 0.5 mg/kg/injection, schedule: Q01DX009 (ip), vehicle: saline + alcohol 118 % of control

CCCCC(C)C(=O)/C=C/c1ccc(Cl)c(Cl)c1 (stereo unspecified)
inactive: [1] 105 % of control | [2] 100 % of control | [3] 106 % of control

COc1cc([Se]c2ccccc2)ccc1N(C)C
inactive: dose: 30.0 mg/kg/injection, schedule: Q01DX005 (ip), vehicle: Klucel (hydroxypropylcellulose) (HPC) 101 % of control | dose: 60.0 mg/kg/injection, schedule: Q01DX005 (ip), vehicle: Klucel (hydroxypropylcellulose) (HPC) 107 % of control | dose: 120.0 mg/kg/injection, schedule: Q01DX005 (ip), vehicle: Klucel (hydroxypropylcellulose) (HPC) 100 % of control | dose: 240.0 mg/kg/injection, schedule: Q01DX005 (ip), vehicle: Klucel (hydroxypropylcellulose) (HPC) 113 % of control

O=C1c2ccccc2CN(C(=Nc2ccccc2)Nc2ccccc2)c2ccccc21
inactive: [4] 90 % of control | [5] 91 % of control | [6] 102 % of control

CC1(C)OC(C(CCl)OS(C)(=O)=O)C(C(CCl)OS(C)(=O)=O)O1 (stereo unspecified)
inactive: dose: 50.0 mg/kg/injection, schedule: Q04DX003 (ip), vehicle: Klucel (hydroxypropylcellulose) (HPC) 92 % of control | dose: 100.0 mg/kg/injection, schedule: Q04DX003 (ip), vehicle: Klucel (hydroxypropylcellulose) (HPC) 100 % of control | dose: 200.0 mg/kg/injection, schedule: Q04DX003 (ip), vehicle: Klucel (hydroxypropylcellulose) (HPC) 100 % of control

O=S1(=O)c2ccccc2N(c2ccccc2)c2nnc(-c3ccccc3)n21
inactive: dose: 100.0 mg/kg/injection, schedule: Q04DX002 (ip), vehicle: saline with Tween-80 93 % of control | dose: 200.0 mg/kg/injection, schedule: Q04DX002 (ip), vehicle: saline with Tween-80 92 % of control | dose: 400.0 mg/kg/injection, schedule: Q04DX002 (ip), vehicle: saline with Tween-80 92 % of control

Cc1cc(N=Nc2ccc(-c3ccc(N=Nc4ccc(O)c(C(=O)O)c4)cc3)cc2)c(N)c(N=Nc2ccc(C(=O)Nc3ccc(S(=O)(=O)O)cc3)cc2)c1N
inactive: dose: 6.25 mg/kg/injection, schedule: Q01DX005 (ip), vehicle: saline with Tween-80 100 % of control | [7] 101 % of control | [8] 101 % of control

Cc1[nH][nH]c(=O)c1[N+](=O)[O-]
inactive: [1] 99 % of control | [2] 108 % of control | [3] 114 % of control

CCOC(=O)c1ccc(N2C(C(=O)OCC)Nc3ccc(C(=O)OCC)cc3C2C(=O)OCC)cc1 (stereo unspecified)
inactive: dose: 100.0 mg/kg/injection, schedule: Q04DX002 (ip), vehicle: Klucel (hydroxypropylcellulose) (HPC) 97 % of control | dose: 200.0 mg/kg/injection, schedule: Q04DX002 (ip), vehicle: Klucel (hydroxypropylcellulose) (HPC) 88 % of control

Cc1[nH]c(=O)[nH]c(=O)c1CCSSCCc1c(C)[nH]c(=O)[nH]c1=O
inactive: [4] 102 % of control | [5] 100 % of control | [6] 98 % of control

COC(=O)/C(=C(\C)C=O)N1C(=O)C(NC(=O)c2ccccc2)C1SSc1nc2ccccc2s1 (stereo unspecified)
inactive: dose: 100.0 mg/kg/injection, schedule: Q01DX001 (ip), vehicle: Klucel (hydroxypropylcellulose) (HPC) 108 % of control | dose: 200.0 mg/kg/injection, schedule: Q01DX001 (ip), vehicle: Klucel (hydroxypropylcellulose) (HPC) 95 % of control | dose: 400.0 mg/kg/injection, schedule: Q01DX001 (ip), vehicle: Klucel (hydroxypropylcellulose) (HPC) 112 % of control

COC(=O)C(C)=O
inactive: dose: 100.0 mg/kg/injection, schedule: Q04DX003 (ip), vehicle: saline 100 % of control | dose: 200.0 mg/kg/injection, schedule: Q04DX003 (ip), vehicle: saline 90 % of control | dose: 400.0 mg/kg/injection, schedule: Q04DX003 (ip), vehicle: saline 90 % of control

COC(=O)C[Si](C)(C)C
inactive: [4] 105 % of control | [5] 98 % of control | [6] 95 % of control

C(=Nc1ccc2ccccc2c1)Nc1ccc2ccccc2c1.[Cu+2]
inactive: [9] 115 % of control | [1] 117 % of control

CS(=O)(=O)c1nc(N)c2nnn(C3OC(CO)C(O)C3O)c2n1 (stereo unspecified)
inactive: dose: 12.5 mg/kg/injection, schedule: Q01DX001 (ip), vehicle: saline 109 % of control | dose: 25.0 mg/kg/injection, schedule: Q01DX001 (ip), vehicle: saline 100 % of control | dose: 50.0 mg/kg/injection, schedule: Q01DX001 (ip), vehicle: saline 118 % of control | dose: 100.0 mg/kg/injection, schedule: Q01DX001 (ip), vehicle: saline 109 % of control

Clc1ccc(CCNCc2ccc(Cl)cc2)cc1
inactive: [7] 87 % of control | [8] 97 % of control | [4] 106 % of control and 97 % of control

C[N+](c1ccc(Cl)cc1)=S(C)(C)=O
inactive: dose: 6.25 mg/kg/injection, schedule: Q01DX009 (ip), vehicle: saline 99 % of control | dose: 12.5 mg/kg/injection, schedule: Q01DX009 (ip), vehicle: saline 94 % of control | [9] 98 % of control

COc1cc2c(cc1OC)C1CC(=O)C(Cc3ccccc3)CN1CC2 (stereo unspecified)
inactive: dose: 50.0 mg/kg/injection, schedule: Q01DX009 (ip), vehicle: Klucel (hydroxypropylcellulose) (HPC) 101 % of control | dose: 100.0 mg/kg/injection, schedule: Q01DX009 (ip), vehicle: Klucel (hydroxypropylcellulose) (HPC) 87 % of control and 95 % of control | dose: 200.0 mg/kg/injection, schedule: Q01DX009 (ip), vehicle: Klucel (hydroxypropylcellulose) (HPC) 95 % of control and 104 % of control

— PubChem BioAssay AID330 (DTP/NCI, 2004)
